Experimental data: patent publication US20230286930A1, “N -SUBSTITUTED 4-(1,3-ARYLOXAZOLO-2-YL)PHENYL COMPOUNDS FOR THE TREATMENT AND PROPHYLAXIS OF HEPATITIS B VIRUS INFECTION” (Hoffmann-La Roche Inc., priority 2020, published 2023)

What was measured:
[1] = test system: HBsAg; experiment: PHH natural infection assay, HBsAg (alphalisa); format: cell-based, HBV; details: Hepatitis B virus, read-out: HBsAg IC50
Method: (§1) Detailed procedures regarding primary human hepatocyte (PHH) HBV natural infection assay are described as below. One tube of frozen PHH (10 million cells) is thawed in 37° C. water bath and then transferred to 20 mL of PHH thawing medium (Sigma, InVitroGRO HT Medium, Cat. S03319) with gently mixing. The cells were then centrifuged at […] for 5 min, the supernatant was discarded and the tube was refilled with 25 mL of PHH plating medium (Sigma, InVitroGRO CP Medium, Cat. S03317). The tube was shaken very gently to re-suspend all cells, and then 50 μL of cells were transferred to each well 384-well collagen I coated plate with appropriate liquid handling equipment, e.g. Integra VIAFLO384 or Agilent Bravo. The cells were then cultured for 24 hours in a cell incubator. For HBV infection, after PHH attachment on the culture plate, the plating medium was removed and replenished with PHH culture medium containing HBV virus. The PHH culture medium was prepared with Dulbecco's Modified Eagle Medium (DMEM)/F12 (1:1 in volume ratio) containing 10% fetal bovine serum (Gibco, Cat. 10099141), 5 ng/mL human epidermal growth factor (Gibco, Cat.PHG0311L), 20 ng/mL dexamethasone (Sigma, Cat.D4902-100 mg), 250 ng/mL human recombinant insulin (Gibco, Cat.41400045) and 100 U/mL penicillin. HBV virus at 200 genome equivalent (GE) per cell with 4% PEG8000 (Sigma, Cat.P1458) containing culture medium were added to the PHH culture medium for infection. The cells were then cultured for 24 hours in cell incubator. Then the cell culture supernatant was removed. The HBV-infected PHH were cultured with sandwich culture method with PHH culture medium containing 1% DMSO and 0.25 mg/mL matrix gel for 72 hours. The supernatant was then refreshed with PHH culture medium containing different concentrations of testing compounds for two times with 72-hour interval. At the end of treatment, the supernatant was collected for viral markers measurements, including HBsAg, HBeAg, HBV DNA and cytotoxicity. HBsAg and HBeAg were detected using alphalisa method using their specific antibodies. For HBV DNA detection, HBV DNA Quantitative Fluorescence Diagnostic Kit (Sansure Biotech Inc.) was used following the manufacture's protocol. Cytotoxicity was determined using Cell Counting Kit-8 (CCK8, Dojindo Molecular Technologies, Inc.).
(§2) The compounds of the present invention were tested for their capacity to inhibit HBsAg and HBeAg as described herein.

[2] = test system: HBeAg; experiment: PHH natural infection assay, HBeAg (alphalisa); format: cell-based, HBV; details: Hepatitis B virus, read-out: HBeAg IC50
Method: as §1, §2

[3] = PHH natural infection assay, cytotoxicity (Cell Counting Kit-8); format: cell-based; details: human
Method: as §1

In the case of `CC(C)OC(=O)Nc1ccc(-c2nc3c(F)cccc3o2)cc1` [Example 60, isopropyl N-[4-(4-fluoro-1,3-benzoxazol-2-yl)phenyl]carbamate], the IC50 [1] is reported as 5.04 µM, the IC50 [2] is reported as 3 µM and the CC50 at 144 h [3] is reported as over 100 µM.

In the case of `CC(C)(C)C(=O)Nc1ccc(-c2nc3cccnc3o2)cc1` [Example 61, 2,2-dimethyl-N-(4-oxazolo[5,4-b]pyridin-2-ylphenyl)propanamide], the IC50 [1] is reported as 1.5 µM, the IC50 [2] is reported as 1.55 µM and the CC50 at 144 h [3] is reported as over 100 µM.

`COC(C)C(=O)Nc1ccc(-c2nc3cccnc3o2)cc1` (stereo not drawn) [Example 62, 2-methoxy-N-(4-oxazolo[5,4-b]pyridin-2-ylphenyl)propanamide] gave an IC50 [1] of 1.61 µM, an IC50 [2] of 3.29 µM and a CC50 at 144 h [3] of over 100 µM.

Work on `O=C(Nc1ccc(-c2nc3cccnc3o2)cc1)C1CCS(=O)(=O)C1` (stereo not drawn) [Example 63, N-(4-oxazolo[5,4-b]pyridin-2-ylphenyl)-1,1-dioxo-thiolane-3-carboxamide] yielded an IC50 [1] of 2.53 µM, an IC50 [2] of 4.83 µM and a CC50 at 144 h [3] of over 100 µM.

Compound `CC1(C(=O)Nc2ccc(-c3nc4cccnc4o3)cc2)CCOC1` (stereo not drawn) [Example 64, 3-methyl-N-(4-oxazolo[5,4-b]pyridin-2-ylphenyl)tetrahydrofuran-3-carboxamide] has an IC50 [1] of 2.76 µM, an IC50 [2] of 3.56 µM and a CC50 at 144 h [3] of over 100 µM.

For `CC1(C(=O)Nc2ccc(-c3nc4cccnc4o3)cc2)COC1` [Example 65, 3-methyl-N-(4-oxazolo[5,4-b]pyridin-2-ylphenyl)oxetane-3-carboxamide], the IC50 [1] was 2.73 µM, the IC50 [2] was 2.2 µM and the CC50 at 144 h [3] was over 100 µM.

Work on `O=C(Nc1ccc(-c2nc3cccnc3o2)cc1)C1CCS(=O)(=O)CC1` [Example 66, N-(4-oxazolo[5,4-b]pyridin-2-ylphenyl)-1,1-dioxo-thiane-4-carboxamide] yielded an IC50 [1] of 3.9 µM, an IC50 [2] of 6.11 µM and a CC50 at 144 h [3] of over 100 µM.

In the case of `O=C(Nc1ccc(-c2nc3cccnc3o2)cc1)C1CCOC1` (stereo not drawn) [Example 67, N-(4-oxazolo[5,4-b]pyridin-2-ylphenyl)tetrahydrofuran-3-carboxamide], the IC50 [1] is reported as 3.08 µM, the IC50 [2] is reported as 3.3 µM and the CC50 at 144 h [3] is reported as over 100 µM.

In the case of `O=C(Nc1ccc(-c2nc3cccnc3o2)cc1)C1COC1` [Example 68, N-(4-oxazolo[5,4-b]pyridin-2-ylphenyl)oxetane-3-carboxamide], the IC50 [1] is reported as 4.51 µM, the IC50 [2] is reported as 4.22 µM and the CC50 at 144 h [3] is reported as over 100 µM.

Work on `O=C(Nc1ccc(-c2nc3c(F)c(F)ccc3o2)cc1)C1CCOC1` (stereo not drawn) [Example 69, N-[4-(4,5-difluoro-1,3-benzoxazol-2-yl)phenyl]tetrahydrofuran-3-carboxamide] yielded an IC50 [1] of 1.49 µM, an IC50 [2] of 2.1 µM and a CC50 at 144 h [3] of over 100 µM.

With `O=C(Nc1ccc(-c2nc3cc(F)cc(F)c3o2)cc1)C1CCOC1` (stereo not drawn) [Example 70, N-[4-(5,7-difluoro-1,3-benzoxazol-2-yl)phenyl]tetrahydrofuran-3-carboxamide] the IC50 [1] was 1.75 µM, the IC50 [2] was 2.46 µM and the CC50 at 144 h [3] was over 100 µM.

`Cc1ccc2nc(-c3ccc(NC(=O)C4CCOC4)cc3)oc2n1` (stereo not drawn) [Example 71, N-[4-(5-methyloxazolo[5,4-b]pyridin-2-yl)phenyl]tetrahydrofuran-3-carboxamide] gave an IC50 [1] of 9.29 µM, an IC50 [2] of 17.5 µM and a CC50 at 144 h [3] of over 100 µM.

Compound `COc1ccc2nc(-c3ccc(NC(=O)C4CCOC4)cc3)oc2n1` (stereo not drawn) [Example 72, N-[4-(5-methoxyoxazolo[5,4-b]pyridin-2-yl)phenyl]tetrahydrofuran-3-carboxamide] has an IC50 [1] of 2.22 µM, an IC50 [2] of 2.61 µM and a CC50 at 144 h [3] of over 100 µM.

`O=C(Nc1ccc(-c2nc3cc(Cl)ccc3o2)cc1)c1ncco1` [Example 73, N-[4-(5-chloro-1,3-benzoxazol-2-yl)phenyl]oxazole-2-carboxamide] showed an IC50 [1] of 1.78 µM, an IC50 [2] of 2.05 µM and a CC50 at 144 h [3] of over 100 µM.

With `O=C(Nc1ccc(-c2nc3cc(Cl)ccc3o2)cc1)c1ccccn1` [Example 74, N-[4-(5-chloro-1,3-benzoxazol-2-yl)phenyl]pyridine-2-carboxamide] the IC50 [1] was 4.1 µM, the IC50 [2] was 5.44 µM and the CC50 at 144 h [3] was over 100 µM.

`O=C(Nc1ccc(-c2nc3cc(Cl)ccc3o2)cc1)C1CCOC1` (stereo not drawn) [Example 75, N-[4-(5-chloro-1,3-benzoxazol-2-yl)phenyl]tetrahydrofuran-3-carboxamide] showed an IC50 [1] of 1.1 µM, an IC50 [2] of 1.34 µM and a CC50 at 144 h [3] of over 100 µM.

In the case of `O=C(Nc1ccc(-c2nc3cc(Cl)ccc3o2)cc1)C12CC(C1)C2` [Example 76, N-[4-(5-chloro-1,3-benzoxazol-2-yl)phenyl]bicyclo[1.1.1]pentane-1-carboxamide], the IC50 [1] is reported as 1.59 µM, the IC50 [2] is reported as 2.11 µM and the CC50 at 144 h [3] is reported as over 100 µM.

In the case of `CC(O)C(=O)Nc1ccc(-c2nc3cc(Cl)ccc3o2)cc1` (stereo not drawn) [Example 77, N-[4-(5-chloro-1,3-benzoxazol-2-yl)phenyl]-2-hydroxy-propanamide], the IC50 [1] is reported as 2.85 µM, the IC50 [2] is reported as 2.54 µM and the CC50 at 144 h [3] is reported as over 100 µM.

`Cc1cnc(C(=O)Nc2ccc(-c3nc4ccc(F)c(F)c4o3)cc2)o1` [Example 78, N-[4-(6,7-difluoro-1,3-benzoxazol-2-yl)phenyl]-5-methyl-oxazole-2-carboxamide] showed an IC50 [1] of 0.81 µM, an IC50 [2] of 1.11 µM and a CC50 at 144 h [3] of over 100 µM.

`Cc1coc(C(=O)Nc2ccc(-c3nc4ccc(F)c(F)c4o3)cc2)n1` [Example 79, N-[4-(6,7-difluoro-1,3-benzoxazol-2-yl)phenyl]-4-methyl-oxazole-2-carboxamide] gave an IC50 [1] of 0.82 µM, an IC50 [2] of 1.03 µM and a CC50 at 144 h [3] of over 100 µM.

`Cc1nnc(C(=O)Nc2ccc(-c3nc4ccc(F)c(F)c4o3)cc2)o1` [Example 80, N-[4-(6,7-difluoro-1,3-benzoxazol-2-yl)phenyl]-5-methyl-1,3,4-oxadiazole-2-carboxamide] gave an IC50 [1] of 1.34 µM, an IC50 [2] of 2.11 µM and a CC50 at 144 h [3] of over 100 µM.

With `Cc1ncc(C(=O)Nc2ccc(-c3nc4ccc(F)c(F)c4o3)cc2)o1` [Example 81, N-[4-(6,7-difluoro-1,3-benzoxazol-2-yl)phenyl]-2-methyl-oxazole-5-carboxamide] the IC50 [1] was 1.43 µM, the IC50 [2] was 2.06 µM and the CC50 at 144 h [3] was over 100 µM.

Work on `O=C(Nc1ccc(-c2nc3ccc(F)c(F)c3o2)cc1)C1CCOC1` (stereo not drawn) [Example 82, N-[4-(6,7-difluoro-1,3-benzoxazol-2-yl)phenyl]tetrahydrofuran-3-carboxamide] yielded an IC50 [1] of 0.52 µM, an IC50 [2] of 0.55 µM and a CC50 at 144 h [3] of over 100 µM.

In the case of `O=C(Nc1ccc(-c2nc3ccc(F)c(F)c3o2)cc1)C1CCS(=O)(=O)C1` (stereo not drawn) [Example 83, N-[4-(6,7-difluoro-1,3-benzoxazol-2-yl)phenyl]-1,1-dioxo-thiolane-3-carboxamide], the IC50 [1] is reported as 1.79 µM, the IC50 [2] is reported as 2.54 µM and the CC50 at 144 h [3] is reported as over 100 µM.

Compound `O=C(Nc1ccc(-c2nc3c(F)cc(F)cc3o2)cc1)C1CCOC1` (stereo not drawn) [Example 84, N-[4-(4,6-difluoro-1,3-benzoxazol-2-yl)phenyl]tetrahydrofuran-3-carboxamide] has an IC50 [1] of 1.4 µM, an IC50 [2] of 2.01 µM and a CC50 at 144 h [3] of over 100 µM.

Compound `O=C(Nc1ccc(-c2nc3cccc(Cl)c3o2)cc1)C1CCS(=O)(=O)C1` (stereo not drawn) [Example 85, N-[4-(7-chloro-1,3-benzoxazol-2-yl)phenyl]-1,1-dioxo-thiolane-3-carboxamide] has an IC50 [1] of 2.68 µM, an IC50 [2] of 1.72 µM and a CC50 at 144 h [3] of over 100 µM.
